According to ChEMBL document CHEMBL4483862, “Open-source discovery of chemical leads for next-generation chemoprotective antimalarials” (2018):

Tested on: Plasmodium berghei
Assay: Luciferase/luciferin-expressing antifolate-resistant parasites were used to infect a culture of HepG2 cells that were pre-incubated with compounds. Infected hepatocytes emit light due to the luciferase reaction. Assay results are presented as the percent inhibition of light emission compared to control. […]
Type: functional
Conditions: sporozoite; for IC90: read-out: LUCIFERASE INFECTION ASSAY - IC90

Row | Structure (SMILES) | IC90 [µM] | other results
1 | Cc1nc(C(=O)NNC(=O)c2ccc(Cl)cc2)cs1 | > 11.2 | IC50 (PBLUC_HILL_SLOPE 2.52, PBLUC_R_SQUARED 0.734, read-out: LUCIFERASE INFECTION ASSAY - IC50): > 11.2 µM
2 | O=C(Nc1ccc(F)cc1F)c1cc(Cl)cc(Cl)c1O | > 10.4 | IC50 (PBLUC_HILL_SLOPE 2.53, PBLUC_R_SQUARED 0.435, read-out: LUCIFERASE INFECTION ASSAY - IC50): 4.75 µM
3 | NC1=CC(=O)c2ccccc2C1=O | > 19.1 | IC50 (PBLUC_HILL_SLOPE 2.49, PBLUC_R_SQUARED 0.187, read-out: LUCIFERASE INFECTION ASSAY - IC50): 12 µM
4 | CCC(C)(C)c1ccc(Oc2ccc(NC(=O)COC(=O)c3ccc(Cl)c(S(N)(=O)=O)c3)cc2)cc1 | > 10 | IC50 (PBLUC_HILL_SLOPE 2.55, PBLUC_R_SQUARED 0.138, read-out: LUCIFERASE INFECTION ASSAY - IC50): 5.78 µM
5 | CCOc1cc2c(cc1/C=C/C(=O)c1ccc(C)o1)OC(C)C2 (stereo unspecified) | > 10 | IC50 (PBLUC_HILL_SLOPE 2.56, PBLUC_R_SQUARED 0.238, read-out: LUCIFERASE INFECTION ASSAY - IC50): 9.29 µM
6 | COc1cc2[nH]c(CN3CCN(c4ncccn4)CC3)nc(=O)c2cc1OC | > 10 | IC50 (PBLUC_HILL_SLOPE 2.49, PBLUC_R_SQUARED 0.0972, read-out: LUCIFERASE INFECTION ASSAY - IC50): 7.74 µM
7 | Cc1nn2c3ccccc3n(C)c2c1C(=O)N/N=C/c1ccc([N+](=O)[O-])o1 | > 10 | IC50 (PBLUC_HILL_SLOPE 2.48, PBLUC_R_SQUARED 0.513, read-out: LUCIFERASE INFECTION ASSAY - IC50): 5.52 µM
8 | O=C(c1cnc(Nc2cccc(Cc3ccccc3)c2)[nH]1)c1ccccc1O | > 8.93 | IC50 (PBLUC_HILL_SLOPE 2.54, PBLUC_R_SQUARED 0.464, read-out: LUCIFERASE INFECTION ASSAY - IC50): 6.19 µM
9 | Cc1ccc(NNC(=O)c2cnc3c(c2)c(C)nn3C)cc1Cl | > 10 | IC50 (PBLUC_HILL_SLOPE 2.54, PBLUC_R_SQUARED 0.422, read-out: LUCIFERASE INFECTION ASSAY - IC50): 7.03 µM
10 | Nc1nc(-c2c[nH]c3ccccc23)c(-c2ccccc2)s1 | > 10 | IC50 (PBLUC_HILL_SLOPE 2.51, PBLUC_R_SQUARED 0.619, read-out: LUCIFERASE INFECTION ASSAY - IC50): 7.04 µM
11 | O=C(CN1CC=C(c2c[nH]c3ccccc23)CC1)Nc1cccc(F)c1 | > 10 | IC50 (PBLUC_HILL_SLOPE 2.56, PBLUC_R_SQUARED 0.252, read-out: LUCIFERASE INFECTION ASSAY - IC50): 6.56 µM
12 | CC1N(C)c2cc(NC(=O)/C=C/c3ccc(F)cc3)ccc2C1(C)C (stereo unspecified) | > 10 | IC50 (PBLUC_HILL_SLOPE 2.49, PBLUC_R_SQUARED 0.1, read-out: LUCIFERASE INFECTION ASSAY - IC50): 5.32 µM
13 | Nc1nccnc1C(=O)Nc1ncc(Cc2cc(Cl)cc(Cl)c2)s1 | 7.09 | IC50 (PBLUC_HILL_SLOPE 2.47, PBLUC_R_SQUARED 0.427, read-out: LUCIFERASE INFECTION ASSAY - IC50): 2.91 µM
14 | CC(C)NC(=O)NCc1ccc(C(=O)OCC(=O)C(C#N)=C2Nc3ccccc3N2)cc1 | 6.88 | IC50 (PBLUC_HILL_SLOPE 2.52, PBLUC_R_SQUARED 0.605, read-out: LUCIFERASE INFECTION ASSAY - IC50): 2.88 µM
15 | CCOC(=O)c1c(N)sc(Sc2ccccc2[N+](=O)[O-])c1-c1ccccc1 | > 10 | IC50 (PBLUC_HILL_SLOPE 2.49, PBLUC_R_SQUARED 0.748, read-out: LUCIFERASE INFECTION ASSAY - IC50): 4.39 µM
16 | Cc1nc(COc2ccc(Cl)cc2)sc1C(=O)OC(C)C(=O)N1CCCC1 (stereo unspecified) | > 10 | IC50 (PBLUC_HILL_SLOPE 2.47, PBLUC_R_SQUARED 0.699, read-out: LUCIFERASE INFECTION ASSAY - IC50): 4.52 µM
17 | CCC(C)(C)c1ccc(Oc2ccc(NC(=O)COC(=O)CNC(=O)c3ccc(C)c(C)c3)cc2)cc1 | > 10 | IC50 (PBLUC_HILL_SLOPE 2.53, PBLUC_R_SQUARED 0.335, read-out: LUCIFERASE INFECTION ASSAY - IC50): 6.55 µM

Row | Structure (SMILES) | IC90 [µM] | other results
18 | CCN(Cc1ccc(Cl)s1)C(=O)c1ccc(NC(=O)c2ccco2)cc1 | > 10 | IC50 (PBLUC_HILL_SLOPE 2.47, PBLUC_R_SQUARED 0.568, read-out: LUCIFERASE INFECTION ASSAY - IC50): 5.55 µM
19 | CC(=O)N1CCc2cc(NC(=O)C3CCN(c4ccc(C#N)cn4)CC3)ccc21 | > 10 | IC50 (PBLUC_HILL_SLOPE 2.56, PBLUC_R_SQUARED 0.25, read-out: LUCIFERASE INFECTION ASSAY - IC50): > 10 µM
20 | N#C/C(=C\c1cn(Cc2ccccc2)nc1-c1cccnc1)c1nc2ccccc2[nH]1 | 8.82 | IC50 (PBLUC_HILL_SLOPE 2.49, PBLUC_R_SQUARED 0.607, read-out: LUCIFERASE INFECTION ASSAY - IC50): 3.65 µM
21 | O=c1cc(N2CCCN(c3ccc(C(F)(F)F)cn3)CC2)nc2ccccn12 | > 10 | IC50 (PBLUC_HILL_SLOPE 2.47, PBLUC_R_SQUARED 0.397, read-out: LUCIFERASE INFECTION ASSAY - IC50): 5.84 µM
22 | CCC1=C(C(=O)OC)C(c2c(F)cccc2F)NC(=S)N1c1ccc2c(c1)OCCO2 (stereo unspecified) | > 10 | IC50 (PBLUC_HILL_SLOPE 2.5, PBLUC_R_SQUARED 0.683, read-out: LUCIFERASE INFECTION ASSAY - IC50): 6.87 µM
23 | CCn1cc(C(=O)OC)c(=O)c2cc(C(F)(F)F)ccc21 | > 11 | IC50 (PBLUC_HILL_SLOPE 2.56, PBLUC_R_SQUARED 0.477, read-out: LUCIFERASE INFECTION ASSAY - IC50): 5.72 µM
24 | NC(=O)c1cccc(-c2cn3c(-c4ccc(F)c(Cl)c4)cnc3cn2)c1 | > 9 | IC50 (PBLUC_HILL_SLOPE 2.55, PBLUC_R_SQUARED 0.396, read-out: LUCIFERASE INFECTION ASSAY - IC50): 5.28 µM
25 | C=CCn1c(-c2ccc(Cl)cc2Cl)csc1=Nc1ccc(NC(C)=O)cc1 | 6.44 | IC50 (PBLUC_HILL_SLOPE 2.47, PBLUC_R_SQUARED 0.472, read-out: LUCIFERASE INFECTION ASSAY - IC50): 2.64 µM
26 | O=C(Nc1cc(Cl)sc1Cl)Oc1cccnc1 | 10.6 | IC50 (PBLUC_HILL_SLOPE 2.49, PBLUC_R_SQUARED 0.591, read-out: LUCIFERASE INFECTION ASSAY - IC50): 4.41 µM
27 | NS(=O)(=O)c1cc(C(=O)OCC(=O)Nc2ccc(OC(F)F)cc2)ccc1Cl | > 10 | IC50 (PBLUC_HILL_SLOPE 2.5, PBLUC_R_SQUARED 0.514, read-out: LUCIFERASE INFECTION ASSAY - IC50): 6.64 µM
28 | Cc1ccc2cc(C)c(N/N=C/c3c(C)nn(-c4ccccc4)c3Cl)nc2c1 | 9.17 | IC50 (PBLUC_HILL_SLOPE 2.56, PBLUC_R_SQUARED 0.451, read-out: LUCIFERASE INFECTION ASSAY - IC50): 3.89 µM
29 | CC(C)c1ccc(NC(=O)N2[C@@H]3CC[C@@H](C3)[C@H]2c2nc3c(OCC4CC4)cccc3[nH]2)cc1 | > 10 | IC50 (PBLUC_HILL_SLOPE 2.47, PBLUC_R_SQUARED 0.452, read-out: LUCIFERASE INFECTION ASSAY - IC50): 6.2 µM
30 | COc1ccc(OC)c(/C=c2\s/c(=C(/C#N)c3nnc4n3CCCCC4)n(-c3ccccc3)c2=O)c1 | > 10 | IC50 (PBLUC_HILL_SLOPE 2.48, PBLUC_R_SQUARED 0.654, read-out: LUCIFERASE INFECTION ASSAY - IC50): 4.74 µM
31 | CCCCOCCCNC(=O)c1cc2ccccc2cc1OC | > 10 | IC50 (PBLUC_HILL_SLOPE 2.53, PBLUC_R_SQUARED 0.451, read-out: LUCIFERASE INFECTION ASSAY - IC50): 6.56 µM
32 | COc1ccc(S(=O)(=O)Nc2cc(Sc3ccc(C)cc3)c(O)c3ccccc23)cc1 | > 10 | IC50 (PBLUC_HILL_SLOPE 2.53, PBLUC_R_SQUARED 0.459, read-out: LUCIFERASE INFECTION ASSAY - IC50): 6.71 µM
33 | C/C(=N\N=C(N)N)c1ccc(Cl)c(Cl)c1 | > 10 | IC50 (PBLUC_HILL_SLOPE 2.49, PBLUC_R_SQUARED 0.254, read-out: LUCIFERASE INFECTION ASSAY - IC50): 4.31 µM
